# Starred links: 1 amine or outer side, 2 acyl side, 3 side chain; linkers in the order of their positions; H or OH if unused. Residues, ends and D or L forms follow the SMILES beside them. Groups on a side chain read outwards from the residue. *: point of attachment. C18 diacid = O=C(O)CCCCCCCCCCCCCCCCC(=O)*; γGlu = O=C(O)[C@H](CCC(=O)[*:2])N[*:1]; AEEA = NCCOCCOCC(=O)O
# Target: T1, human CRF2α receptor (Homo sapiens, UniProt Q13324)
# T1 construct: expressed in transfected cells; host or cells: TeloHEAC
# T1 sequence (Q13324 1-411): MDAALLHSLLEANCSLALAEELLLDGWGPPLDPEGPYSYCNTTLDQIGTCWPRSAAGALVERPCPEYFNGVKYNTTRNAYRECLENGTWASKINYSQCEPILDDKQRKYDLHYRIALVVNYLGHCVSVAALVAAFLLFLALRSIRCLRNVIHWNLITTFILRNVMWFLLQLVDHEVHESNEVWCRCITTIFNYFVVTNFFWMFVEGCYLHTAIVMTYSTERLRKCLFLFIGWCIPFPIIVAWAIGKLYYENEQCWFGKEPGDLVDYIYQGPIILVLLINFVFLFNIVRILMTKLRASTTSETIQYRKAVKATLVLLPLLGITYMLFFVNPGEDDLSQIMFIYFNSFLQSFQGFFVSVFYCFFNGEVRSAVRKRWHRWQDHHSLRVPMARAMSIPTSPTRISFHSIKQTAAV
# Assay: cAMP agonism at human CRF2 α receptor in TeloHEAC cells (Example 7)
# Type: cell-based
# Conditions: cAMP HTRF, TeloHEAC cells stably expressing human CRF2 α, 0% HSA; read-out: EC50 [nM], 0% HSA
# Outline: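 Percent activation was referenced to 1000 nM UCN2 (100%), and EC50 values taken as concentrations giving half of maximal response. The read-out was a homogeneous time-resolved fluorescence cAMP kit, fluorescence ratio 665/620 nm. Thawed cells (2000/well) saw compound for 30 min at RT in buffer with 2 mM IBMX and 0%/0.1% HSA.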
row,EC50 [nM],SMILES
1,1.73,CC[C@H](C)[C@H](N)C(=O)N[C@H](C(=O)N[C@@H](CC(C)C)C(=O)N[C@@H](CO)C(=O)N[C@@H](CC(C)C)C(=O)N[C@@H](CC(=O)O)C(=O)N[C@H](C(=O)N1CCC[C@H]1C(=O)N[C@H](C(=O)N[C@@H](CCCCN)C(=O)N[C@@H](CC(C)C)C(=O)N[C@@H](CCCCNC(=O)COCCOCCNC(=O)COCCOCCNC(=O)CC[C@H](NC(=O)CCCCCCCCCCCCCCCCC(=O)O)C(=O)O)C(=O)N[C@@H](CCCCN)C(=O)N[C@H](C(=O)N[C@@H](CC(C)C)C(=O)N[C@@H](CC(C)C)C(=O)N[C@@H](CCCCN)C(=O)N[C@@H](CCC(N)=O)C(=O)N[C@@H](CCC(=O)O)C(=O)N[C@@H](CCCNC(=N)N)C(=O)N[C@@H](CCC(N)=O)C(=O)N[C@@H](CCCCN)C(=O)N[C@@H](CCCCN)C(=O)N[C@@H](CCC(=O)O)C(=O)N[C@@H](CCCNC(=N)N)C(=O)N[C@@H](CCC(=O)O)C(=O)N[C@@H](CCC(N)=O)C(=O)N[C@@H](C)C(=O)N[C@@H](CCC(=O)O)C(=O)N[C@H](C(=O)N[C@@H](CC(N)=O)C(=O)N[C@@H](CCCCN)C(=O)N[C@@H](CCC(N)=O)C(=O)N[C@H](C(=O)N[C@@H](CC(C)C)C(=O)N[C@@H](C)C(=O)N[C@@H](CCC(N)=O)C(=O)N[C@H](C(N)=O)C(C)C)[C@@H](C)CC)[C@@H](C)O)[C@@H](C)CC)[C@@H](C)CC)C(C)C)C(C)C [compound 94] (H-IVLSLDVPIKLK([AEEA-AEEA-γGlu-C18 diacid])KILLKQERQKKEREQAETNKQILAQV-NH2)
2,25,CC[C@H](C)[C@H](N)C(=O)N[C@H](C(=O)N[C@@H](CC(C)C)C(=O)N[C@@H](CO)C(=O)N[C@@H](CC(C)C)C(=O)N[C@@H](CC(=O)O)C(=O)N[C@H](C(=O)N1CCC[C@H]1C(=O)N[C@H](C(=O)N[C@@H](CCCCN)C(=O)N[C@@H](CC(C)C)C(=O)N[C@@H](CCCCNC(=O)COCCOCCNC(=O)COCCOCCNC(=O)CC[C@H](NC(=O)CCCCCCCCCCCCCCCCC(=O)O)C(=O)O)C(=O)N[C@@H](CCC(N)=O)C(=O)N[C@@H](CCCCN)C(=O)N[C@@H](CC(C)C)C(=O)N[C@@H](CC(C)C)C(=O)N[C@@H](CCCCN)C(=O)N[C@@H](CCC(N)=O)C(=O)N[C@@H](CCC(=O)O)C(=O)N[C@@H](CCCNC(=N)N)C(=O)N[C@@H](CCC(N)=O)C(=O)N[C@@H](CCCCN)C(=O)N[C@@H](CCCCN)C(=O)N[C@@H](CCC(=O)O)C(=O)N[C@@H](CCCNC(=N)N)C(=O)N[C@@H](CCC(=O)O)C(=O)N[C@@H](CCC(N)=O)C(=O)N[C@@H](C)C(=O)N[C@@H](CCC(=O)O)C(=O)N[C@H](C(=O)N[C@@H](CC(N)=O)C(=O)N[C@@H](CCCCN)C(=O)N[C@@H](CCC(N)=O)C(=O)N[C@H](C(=O)N[C@@H](CC(C)C)C(=O)N[C@@H](C)C(=O)N[C@@H](CCC(N)=O)C(=O)N[C@H](C(N)=O)C(C)C)[C@@H](C)CC)[C@@H](C)O)[C@@H](C)CC)C(C)C)C(C)C [compound 95] (H-IVLSLDVPIKLK([AEEA-AEEA-γGlu-C18 diacid])QKLLKQERQKKEREQAETNKQILAQV-NH2; N-terminus assumed)
3,1.66,CC[C@H](C)[C@H](N)C(=O)N[C@H](C(=O)N[C@@H](CC(C)C)C(=O)N[C@@H](CO)C(=O)N[C@@H](CC(C)C)C(=O)N[C@@H](CC(=O)O)C(=O)N[C@H](C(=O)N1CCC[C@H]1C(=O)N[C@H](C(=O)N[C@@H](CCCCN)C(=O)N[C@@H](CC(C)C)C(=O)N[C@@H](CCCCNC(=O)COCCOCCNC(=O)COCCOCCNC(=O)CC[C@H](NC(=O)CCCCCCCCCCCCCCCCC(=O)O)C(=O)O)C(=O)N[C@@H](CCC(N)=O)C(=O)N[C@@H](CCCCN)C(=O)N[C@@H](CC(C)C)C(=O)N[C@@H](CC(C)C)C(=O)N[C@@H](CCCCN)C(=O)N[C@@H](CCC(N)=O)C(=O)N[C@@H](CCC(=O)O)C(=O)N[C@@H](CCCNC(=N)N)C(=O)N[C@@H](CCC(N)=O)C(=O)N[C@@H](CCCCN)C(=O)N[C@@H](CCCCN)C(=O)N[C@@H](CCC(N)=O)C(=O)N[C@@H](CCCNC(=N)N)C(=O)N[C@@H](CCC(=O)O)C(=O)N[C@@H](CCC(N)=O)C(=O)N[C@@H](C)C(=O)N[C@@H](CCC(=O)O)C(=O)N[C@H](C(=O)N[C@@H](CC(N)=O)C(=O)N[C@@H](CCCCN)C(=O)N[C@@H](CCC(N)=O)C(=O)N[C@H](C(=O)N[C@@H](CC(C)C)C(=O)N[C@@H](C)C(=O)N[C@@H](CCC(N)=O)C(=O)N[C@H](C(N)=O)C(C)C)[C@@H](C)CC)[C@@H](C)O)[C@@H](C)CC)C(C)C)C(C)C [compound 97] (H-IVLSLDVPIKLK([AEEA-AEEA-γGlu-C18 diacid])QKLLKQERQKKQREQAETNKQILAQV-NH2)

# Same assay, conditions: cAMP HTRF, TeloHEAC cells stably expressing human CRF2 α, 0.1% HSA; read-out: EC50 [nM], 0.1% HSA
row,EC50 [nM],SMILES
1,49.1,CC[C@H](C)[C@H](N)C(=O)N[C@H](C(=O)N[C@@H](CC(C)C)C(=O)N[C@@H](CO)C(=O)N[C@@H](CC(C)C)C(=O)N[C@@H](CC(=O)O)C(=O)N[C@H](C(=O)N1CCC[C@H]1C(=O)N[C@H](C(=O)N[C@@H](CCCCN)C(=O)N[C@@H](CC(C)C)C(=O)N[C@@H](CCCCNC(=O)COCCOCCNC(=O)COCCOCCNC(=O)CC[C@H](NC(=O)CCCCCCCCCCCCCCCCC(=O)O)C(=O)O)C(=O)N[C@@H](CCCCN)C(=O)N[C@H](C(=O)N[C@@H](CC(C)C)C(=O)N[C@@H](CC(C)C)C(=O)N[C@@H](CCCCN)C(=O)N[C@@H](CCC(N)=O)C(=O)N[C@@H](CCC(=O)O)C(=O)N[C@@H](CCCNC(=N)N)C(=O)N[C@@H](CCC(N)=O)C(=O)N[C@@H](CCCCN)C(=O)N[C@@H](CCCCN)C(=O)N[C@@H](CCC(=O)O)C(=O)N[C@@H](CCCNC(=N)N)C(=O)N[C@@H](CCC(=O)O)C(=O)N[C@@H](CCC(N)=O)C(=O)N[C@@H](C)C(=O)N[C@@H](CCC(=O)O)C(=O)N[C@H](C(=O)N[C@@H](CC(N)=O)C(=O)N[C@@H](CCCCN)C(=O)N[C@@H](CCC(N)=O)C(=O)N[C@H](C(=O)N[C@@H](CC(C)C)C(=O)N[C@@H](C)C(=O)N[C@@H](CCC(N)=O)C(=O)N[C@H](C(N)=O)C(C)C)[C@@H](C)CC)[C@@H](C)O)[C@@H](C)CC)[C@@H](C)CC)C(C)C)C(C)C [compound 94] (H-IVLSLDVPIKLK([AEEA-AEEA-γGlu-C18 diacid])KILLKQERQKKEREQAETNKQILAQV-NH2)

# From patent US12679878B2, “CRF2 receptor agonists and their use in therapy” (SANOFI, priority 2020, dated 2026)
